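Each compound was tested at five concentrations against cells in 96-well plates for 48 hours. GI50 = concentration required for 50% inhibition of growth. Definition used: TGI = concentration required for complete inhibition of growth.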
Columns and labels:
Experiment in all cases: NCI-60 cell line screen, 48 h; in the data active means GI50 below about 0.43 µM; inactive means the rest
ACHN renal = system: ACHN renal
NCI-H23 lung = system: NCI-H23 lung
RXF 393 renal = system: RXF 393 renal
UO-31 renal = system: UO-31 renal
NCI-H226 lung = system: NCI-H226 lung
LOX IMVI melanoma = system: LOX IMVI melanoma
MDA-MB-435 = system: MDA-MB-435
MOLT-4 leukemia = system: MOLT-4 leukemia
HCT-116 colon = system: HCT-116 colon
SF-268 CNS = system: SF-268 CNS
DU-145 prostate = system: DU-145 prostate
OVCAR-4 ovarian = system: OVCAR-4 ovarian
OVCAR-5 ovarian = system: OVCAR-5 ovarian
MALME-3M melanoma = system: MALME-3M melanoma
HOP-62 NSCLC = system: HOP-62 NSCLC
TK-10 renal = system: TK-10 renal
NCI-H522 lung = system: NCI-H522 lung
SF-539 CNS = system: SF-539 CNS
SK-MEL-5 melanoma = system: SK-MEL-5 melanoma
SF-295 CNS = system: SF-295 CNS
MDA-MB-231 breast = system: MDA-MB-231 breast
COLO 205 colon = system: COLO 205 colon
K-562 leukemia = system: K-562 leukemia
IGROV1 ovarian = system: IGROV1 ovarian
KM12 colon = system: KM12 colon
SW-620 colon = system: SW-620 colon
HS 578T breast = system: HS 578T breast
RPMI-8226 leukemia = system: RPMI-8226 leukemia
PC-3 prostate = system: PC-3 prostate
M14 melanoma = system: M14 melanoma
NCI/ADR-RES ovarian = system: NCI/ADR-RES ovarian
SK-MEL-2 melanoma = system: SK-MEL-2 melanoma
786-0 renal = system: 786-0 renal
SK-OV-3 ovarian = system: SK-OV-3 ovarian
HL-60(TB) leukemia = system: HL-60(TB) leukemia
HCC-2998 colon = system: HCC-2998 colon
A498 renal = system: A498 renal
SR leukemia = system: SR leukemia
CAKI-1 renal = system: CAKI-1 renal
T-47D breast = system: T-47D breast
HT29 colon = system: HT29 colon
UACC-62 melanoma = system: UACC-62 melanoma
CCRF-CEM leukemia = system: CCRF-CEM leukemia
BT-549 breast = system: BT-549 breast
SN12C renal = system: SN12C renal
OVCAR-8 ovarian = system: OVCAR-8 ovarian
MCF7 breast = system: MCF7 breast
NCI-H460 lung = system: NCI-H460 lung
UACC-257 melanoma = system: UACC-257 melanoma
SNB-75 CNS = system: SNB-75 CNS
SK-MEL-28 melanoma = system: SK-MEL-28 melanoma
OVCAR-3 ovarian = system: OVCAR-3 ovarian
SNB-19 CNS = system: SNB-19 CNS
HOP-92 NSCLC = system: HOP-92 NSCLC
U251 CNS = system: U251 CNS
A549 NSCLC = system: A549 NSCLC
HCT-15 colon = system: HCT-15 colon

FC(F)(F)c1ccc(-c2cnc(-c3nn[nH]n3)nc2NC2CCCCCC2)cc1
> 10 µM: TGI (ACHN renal) | TGI (NCI-H23 lung) | TGI (RXF 393 renal) | TGI (UO-31 renal) | TGI (NCI-H226 lung) | TGI (LOX IMVI melanoma) | TGI (MDA-MB-435) | TGI (MOLT-4 leukemia) | TGI (HCT-116 colon) | TGI (SF-268 CNS) | TGI (DU-145 prostate) | TGI (OVCAR-4 ovarian) | TGI (OVCAR-5 ovarian) | TGI (MALME-3M melanoma) | TGI (HOP-62 NSCLC) | TGI (TK-10 renal) | TGI (NCI-H522 lung) | TGI (SF-539 CNS) | TGI (SK-MEL-5 melanoma) | TGI (SF-295 CNS) | TGI (MDA-MB-231 breast) | TGI (COLO 205 colon) | TGI (K-562 leukemia) | TGI (IGROV1 ovarian) | TGI (KM12 colon) | TGI (SW-620 colon) | TGI (HS 578T breast) | TGI (RPMI-8226 leukemia) | TGI (PC-3 prostate) | TGI (M14 melanoma) | TGI (NCI/ADR-RES ovarian) | TGI (SK-MEL-2 melanoma) | TGI (786-0 renal) | TGI (SK-OV-3 ovarian) | TGI (HL-60(TB) leukemia) | TGI (HCC-2998 colon) | TGI (A498 renal) | TGI (SR leukemia) | TGI (CAKI-1 renal) | TGI (T-47D breast) | TGI (HT29 colon) | TGI (UACC-62 melanoma) | TGI (CCRF-CEM leukemia) | TGI (BT-549 breast) | TGI (SN12C renal) | TGI (OVCAR-8 ovarian) | TGI (MCF7 breast) | TGI (NCI-H460 lung) | TGI (UACC-257 melanoma) | TGI (SNB-75 CNS) | TGI (SK-MEL-28 melanoma) | TGI (OVCAR-3 ovarian) | TGI (SNB-19 CNS) | TGI (HOP-92 NSCLC) | TGI (U251 CNS) | TGI (A549 NSCLC) | TGI (HCT-15 colon)
inactive: GI50 (ACHN renal) > 10 µM | GI50 (NCI-H23 lung) > 10 µM | GI50 (RXF 393 renal) > 10 µM | GI50 (UO-31 renal) > 10 µM | GI50 (NCI-H226 lung) > 10 µM | GI50 (LOX IMVI melanoma) > 10 µM | GI50 (MDA-MB-435) > 10 µM | GI50 (MOLT-4 leukemia) > 10 µM | GI50 (HCT-116 colon) > 10 µM | GI50 (SF-268 CNS) > 10 µM | GI50 (DU-145 prostate) > 10 µM | GI50 (OVCAR-4 ovarian) > 10 µM | GI50 (OVCAR-5 ovarian) > 10 µM | GI50 (MALME-3M melanoma) > 10 µM | GI50 (HOP-62 NSCLC) > 10 µM | GI50 (TK-10 renal) > 10 µM | GI50 (NCI-H522 lung) > 10 µM | GI50 (SF-539 CNS) > 10 µM | GI50 (SK-MEL-5 melanoma) > 10 µM | GI50 (SF-295 CNS) > 10 µM | GI50 (MDA-MB-231 breast) > 10 µM | GI50 (COLO 205 colon) > 10 µM | GI50 (K-562 leukemia) > 10 µM | GI50 (IGROV1 ovarian) > 10 µM | GI50 (KM12 colon) > 10 µM | GI50 (SW-620 colon) > 10 µM | GI50 (HS 578T breast) > 10 µM | GI50 (RPMI-8226 leukemia) > 10 µM | GI50 (PC-3 prostate) > 10 µM | GI50 (M14 melanoma) > 10 µM | GI50 (NCI/ADR-RES ovarian) > 10 µM | GI50 (SK-MEL-2 melanoma) > 10 µM | GI50 (786-0 renal) > 10 µM | GI50 (SK-OV-3 ovarian) > 10 µM | GI50 (HL-60(TB) leukemia) > 10 µM | GI50 (HCC-2998 colon) > 10 µM | GI50 (A498 renal) > 10 µM | GI50 (SR leukemia) > 10 µM | GI50 (CAKI-1 renal) > 10 µM | GI50 (T-47D breast) > 10 µM | GI50 (HT29 colon) > 10 µM | GI50 (UACC-62 melanoma) > 10 µM | GI50 (CCRF-CEM leukemia) > 10 µM | GI50 (BT-549 breast) > 10 µM | GI50 (SN12C renal) > 10 µM | GI50 (OVCAR-8 ovarian) > 10 µM | GI50 (MCF7 breast) > 10 µM | GI50 (NCI-H460 lung) > 10 µM | GI50 (UACC-257 melanoma) > 10 µM | GI50 (SNB-75 CNS) > 10 µM | GI50 (SK-MEL-28 melanoma) > 10 µM | GI50 (OVCAR-3 ovarian) > 10 µM | GI50 (SNB-19 CNS) > 10 µM | GI50 (HOP-92 NSCLC) > 10 µM | GI50 (U251 CNS) > 10 µM | GI50 (A549 NSCLC) > 10 µM | GI50 (HCT-15 colon) > 10 µM
